Results on one compound are retold here after patent US20220296566A1, “COMBINATION PRODUCT CONTAINING LIMONOID COMPOUND AND ALPHA-GLUCOSIDASE INHIBITOR” (ZHEJIANG YANGSHENGTANG INSTITUTE OF NATURAL MEDICATION CO., …, priority 2019, published 2022).

Experiment [1] deals with db/db mice. Kind of experiment: Serum leptin by Elisa in db/db mice (Example 2). To be noted: single agent 0.04 g/kg per day by gavage, two weeks, mean ± SD. The format is in vivo. From the text: Effects of limonoid compound, acarbose or combination thereof on blood glucose and leptin in mouse type II diabetes model
In the present example, db/db mice (line name BKS.Cg-Dock7^m+/+Lepr^db/Nju) were used to perform hypoglycemic efficacy evaluation test of animals (blood glucose level and leptin). The limonoid compound was selected from obacunone, isoobacunoic acid and obacunone glycoside, and acarbose single administration group, obacunone single administration group, isoobacunoic acid single administration group, obacunone glycoside single administered group, and respective combination thereof with acarbose administration groups were set.
Conditions for experimental feeding: as type II diabetes model mice, 6-week-old SPF-grade db/db mice were purchased from the Nanjing Model Biology Institute, and subjected to experimental feeding after 7 days of preliminary feeding. It should be noted that the conditions for raising the mice were as follows: the temperature was 23±1° C., the humidity was 55±10%, the lights were turned on between 7 am and 7 pm (the lights were turned off at other time), and the mice were allowed to freely take in water and feed. […]

Experiment [2] relates to STZ mice. In words: Blood glucose in mouse type II diabetes model with pancreatic islet damage and obesity, STZ plus high-fat diet (Example 5). It is filed as in vivo. To be noted: STZ + high-fat diet ICR mice; single agent 0.5 g/kg per day by gavage, two weeks; 1 h after last administration; mean ± SD. From the text:
Effects of limonoid compound, acarbose or combination thereof on blood glucose in mouse type II diabetes model with pancreatic islet damage and obesity
In this example, a mouse model of type II diabetes with pancreatic islet damage and obesity was established by multiple modeling ICR mice with a small dose of streptozotocin (STZ), following with continuous high-fat diets (referring to literature: Zhang Jiyuan et al, Study on the effect of three plant extracts on improving glucose and lipid metabolism in type 2 diabetic mice, Food and Machinery, 2016, 32 (12): 142-147). […]
Experimental grouping: 15 male mice were randomly selected as the normal control group, and the remaining mice were subjected to a high-fat diet (high-fat diet formula: cholesterol 1%, egg yolk powder 10%, lard oil 10%, and basic feed 79%, for establishing an obesity mouse model) for consecutive 4 weeks and intraperitoneal injection of STZ at a dose of 35mg/kg for three consecutive days. After one week, the mice were subject to 24 hours of fasting and water deprivation, their fasting blood glucose was measured, and the mice with a blood glucose level of 15 to 25 mmol/L were selected and undifferentiatedly grouped and used in the experiment, continuously subjected to the high-fat diet, 15 mice in each group, and subjected to blood sampling and detection of indicators after 2 weeks of administration. […]

Turning to `C[C@H]1O[C@H](O[C@H]2[C@H](O)[C@@H](O)[C@@H](O[C@H]3[C@H](O)[C@@H](O)C(O)O[C@@H]3CO)O[C@@H]2CO)[C@H](O)[C@@H](O)[C@@H]1N[C@H]1C=C(CO)[C@@H](O)[C@H](O)[C@H]1O` (some centres unmarked) [Acarbose, acarbose], the Leptin in experiment [1] is 35.57 ± 2.98 pg/mL. For the same compound, the Blood glucose value in experiment [2] came to 15.7 ± 3.0 mmol/L.
